The subject of one data set is colonic dysplasia. The data set is described as follows: In vivo fluorescence endoscopy of colon in CPC;Apc mouse. As to conditions: for fluorescence signal from dysplasia on endoscopy: CPC;Apc mouse colon. An excerpt:
A genetically engineered mouse model (Cpc;Apc) that spontaneously forms adenomatous polyps in the colon was used for this study and handled according to Institutional Guidelines. The colons of anesthetized mice were first cleaned with water before imaging with a small animal endoscope (Karl Storz Veterinary Endoscope) using the white light channel to locate polyps by identifying anatomic landmarks and the distance of the endoscope tip from the anus. […] Fluorescent and reflectance images were then collected with the same endoscope set to the appropriate channels. Once in vivo imaging was complete, four of the mice used in the study were euthanized and colons harvested. Polyps and flat lesions detected during fluorescence imaging were located, removed, and processed for histology (H&E).
These mice are genetically-engineered to spontaneously develop colonic dysplasia, and the colonic lesions that develop are molecularly and histologically similar to that seen in human disease, making these mice a good model for monitoring cancer development. Because the extra-cellular domain of claudin-1 is completely homologous between human and mouse, peptides developed for human targets can be directly used in mouse imaging experiments. […] CPC;Apc mice were imaged at ˜3 months of age when they first begin to develop dysplasia. […] After imaging is completed, mice were euthanized, and the colons were resected. Based on the location of dysplastic lesions determined using fluorescence images collected with endoscopy, a pathologist measured the depth of dysplasia on histology, as shown by the dashed arrow in FIG. 7E. […] Images are obtained from mice over at least three sessions separated by 1 week to monitor for cancer progression.

In a further data set the target is T1, claudin-1 (CLDN1) (Homo sapiens, UniProt O95832).
T1 construct: endogenous in cells; host or cells: SW620 human colorectal adenocarcinoma cells
T1 sequence (O95832 1-211): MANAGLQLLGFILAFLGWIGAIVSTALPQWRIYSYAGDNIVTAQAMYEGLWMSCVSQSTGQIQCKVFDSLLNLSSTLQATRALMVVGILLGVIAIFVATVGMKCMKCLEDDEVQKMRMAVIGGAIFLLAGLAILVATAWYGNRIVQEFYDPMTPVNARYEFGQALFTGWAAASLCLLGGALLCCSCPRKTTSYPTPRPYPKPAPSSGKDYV
The data set is described as follows: siRNA knockdown of CLDN1 expression, peptide and antibody binding to SW620 cells. In kind it is cell-based. The protocol: CLDN1 expression was knocked down using Dharmacon On-Target Plus SMARTpool Human CLDN1 siRNA (Thermo Scientific) according to the manufacturer's protocol. SW620 cells were plated overnight on coverslips in a 12-well plate at 0.2×10^6 cells/mL. The following day, cells were transfected with 3 μL DharmaFECT1 and either 25 nM CLDN1 or control siRNA. After 72 h, transfected cells were analyzed for CLDN1 expression through immunocytochemistry, a peptide binding study, or a Western blot of the cell lysate. For the immunocytochemistry experiment, cells were fixed with ice-cold methanol for 20 minutes at −20° C., blocked for 1 h at RT with PBS+2% BSA, stained with anti-human CLDN1 antibody at 5 μg/mL for 1 h at RT, then with goat anti-Rabbit AF488 (1:500) for 1 h at RT before being mounted on slides with DAPI with Prolong Gold. siRNA-transfected cells were also stained with 5 μM RTS-Cy5.5 or SPT-Cy5.5 for 30 minutes at 4° C., fixed with 4% PFA for 10 minutes at RT, then mounted on slides. Simultaneously, transfected cells were lysed with RIPA buffer containing Roche Mini-Complete EDTA-free Protease Inhibitor for 10 minutes on ice, collected and spun at 20,000×g for 10 minutes at 4° C. Supernatant was saved, total protein concentration quantified via a BCA assay, and 10 ug protein of each sample run on a Novex 4-20% 1.5 mm protein gel before transferring to a PVDF membrane. The membrane was blocked with PBST+5% non-fat milk for 1 h at 4° C., stained with either rabbit anti-CLDN1 Ab or mouse anti-tubulin Ab at 4° C. overnight, then with anti-rabbit HRP (1:500, for CLDN1) or anti-mouse HRP (1:500, for tubulin) for 1 h at RT before developing.
The specificity of peptide binding was validated on siRNA knockdown. […] These cells were transfected with siRNA to knockdown cell surface expression of claudin-1. […] The fluorescence intensities (mean±std) are shown (FIG. 2H). […] Given the experimental design and mean-squared-errors shown in FIG. 2H, with triplicate slides we have 98% power to obtain P<0.01 for interactions that show a 3-fold difference of differences.

The next data set relates to T84 monolayers. As to the kind of experiment: Transepithelial electrical resistance (TEER) and tight junction immunofluorescence. The class given is cell-based, human. The protocol: T84 human colon carcinoma cells were grown in a 1:1 mixture of DMEM and Ham's F-12 culture medium supplemented with 5% FBS. To establish polarized monolayer, the cells were plated on transwell permeable polyester supports (1.12 cm^2, pore size 3 μm, Costar) until they reached confluence after ˜3-4 days, as determined by an increase in TEER.43 The cells were continually grown on transwell supports until the TEER reached ˜2000 Ω-cm^2. […] TEER was then measured at 6, 12 and 24 hours. The cells were fixed with 4% PFA for 12 min. After brief washing, 1% SDS in PBS was used to permeabilize the cells. These procedures were followed by 3% goat serum in PBS blocking for 30 min. Mouse anti-zonula occludens-1 (anti-ZO-1) (1:250, Life Technologies) and rabbit anti-claudin-1 (1:200, Life Technologies) antibodies were diluted in block buffer and incubated in humidity box overnight at 4° C. and fluorescent secondary antibodies were diluted to 1:1000 and incubated for 1 hour at RT. All images were obtained using Nikon A1 confocal microscope (MIL, University of Michigan).
We evaluated the effect of peptide binding on tight junction function using a polarized monolayer of T84 cells plated on transwell supports.

The test system of the next data set is SW620 cells. As to the kind of experiment: Confocal signal and photostability of Cy5- versus FITC-labeled peptide on cells. The class given is cell-based, human. As to conditions: for mean (±std) fluorescence intensity: 10 μM, 4° C., 1 hour, n=6 cells. The protocol:
We incubated pep*-Cy5 (RTS*-Cy5) and pep*-FITC ([…]) (10 μM) (FIG. 4A) with human colon adenocarcinoma (SW620) cells that over-express Claudin-1 at 4° C. for 1 hour. A supercontinuum “white light” laser provided continuous excitation at 1.5 mW for both λex=647 and 488 nm. Confocal images (Leica TCS SP5 Microsystems) were collected using Cy5 and FITC filters every 2 min. At time 0 min, peptide (RTS*-Cy5) binding to the cell surface (arrow) is shown, scale bar 10 μm (FIG. 4B). The mean (±std) fluorescence intensities for the Cy5 and FITC-labeled peptides, measured from n=6 cells, were 58.4±3.7 and 3.1±0.6 A.U. respectively, resulting in ˜20-fold increase in signal using the NIR fluorophore. We also found a 8.5% reduction in fluorescence intensity for pep*-Cy5 in comparison to 32% for pep*-FITC at 12 min, resulting ˜4-fold improvement in photostability (FIG. 4C).

In data set [1] the test system is human colonic adenocarcinoma cells (SW620, SW480, HT29, HCT116). As to the kind of experiment: Cell binding assay on adenocarcinoma cell panel and co-localization with anti-claudin-1 antibody. The class given is cell-based. The protocol:
SW620, SW480, and HT29 cells were plated at 0.5×10^6 cells/mL on coverslips on 12-well plates. The following day, the cells were treated with either 10 μM either RTS*-Cy5.5 or SPT*-Cy5.5 for 1 h at 4° C., fixed with 4% PFA for 10 minutes at RT, then counterstained with DAPI with Prolong Gold. Fluorescent images were collected and analyzed as detailed above. Statistical analysis was performed using a one-way ANOVA analysis on GraphPad Prism.
The cells were incubated with the peptide (10 μM) at 4° C. for 1 hour, washed 3× with PBS, fixed with 4% PFA, and mounted with ProLong Gold containing DAPI (Invitrogen). The mean (±std) fluorescence intensities were quantified using custom Matlab software (FIG. 5F). Levels of claudin-1 expression from cytosol (C) and membrane (M) of cells are shown on western blot (FIG. 5G). The cells were then incubated with 1:50 dilution of primary anti-claudin-1 rabbit mAb (4267, Invitrogen) for 1 hour at 4° C., and washed 3× with PBS at RT. The cells were further incubated with 1:500 dilution of […] labeled with Alexa Fluor 488 (Invitrogen) for 1 hour at RT. Co-localization of peptide (red) and antibody (green) binding to SW620 cells can be appreciated on the overlay fluorescence image (FIG. 5H). A Pearson's correlation of ρ=0.56 was calculated using custom Matlab software.

The next data set deals with human colonic tissues. As to the kind of experiment: Ex vivo staining of human colonic tissue sections. The protocol: Human colon tissue was obtained through consenting patents at the University of Michigan Hospital. Tissue was frozen in OCT and sectioned 10 μm thick using a Cryostat. The sections were thawed before staining with 10 μM RTS*-Cy5 for 15 minutes at RT. Tissues were then washed with PBS, fixed with 4% PFA for 10 min at RT, and counterstained with DAPI with Prolong Gold. Fluorescence was imaged and quantified as outlined above.
Specimens of normal colonic mucosa, adenoma, and adenocarcinoma from the right side (proximal) of the colon were obtained from routine surveillance colonoscopy and surgically removed by endoscopic mucosal resection. The tissues were frozen in OCT (Sakura Finetek), cut in 10 μm sections, and incubated with pep*-Cy5 (5 μM) in 1×PBS for 15 minutes at RT. The sections were washed 3× with PBS. Confocal fluorescence images were collected from these sections with DAPI, FITC and Cy5 filter sets (Leica TCS SP5 Microsystems).
The mean fluorescence intensities (±SEM) from binding of pep*-Cy5 were measured for normal colonic mucosa (n=4, 7±2 AU), adenoma (n=6, 26±4 AU) and adenocarcinoma (n=5, 31±4 AU), P<0.001, unpaired t-test (FIG. 6, scale bar 500 μm). […] We found pep*-Cy5 and anti-claudin-1 mAb to stain colonic adenomas and adenocarcinomas in 11/12 (92%) and 10/10 (100%) sections, respectively.

Setting [2] is: at 12 min of continuous excitation.

Ends that are not written are not given here. Cy5.5 = near infrared dye label

Here are results for 4 substances from patent US10746738B2, “Claudin-1 peptide reagents and methods” (THE REGENTS OF THE UNIVERSITY OF MICHIGAN, priority 2015, dated 2020).

In the case of “SPT*-Cy5.5: control scrambled sequence SPTPSSR labeled with Cy5.5 via the GGGSK linker (SPTPSSRGGGSK-{Cy5.5}) [reference compound]”, the “fluorescence signal from dysplasia on endoscopy” value in the data set with colonic dysplasia is on record as “minimal signal”. In addition, the “signal for siCL versus siCLDN1 cells” value in the data set with claudin-1 (CLDN1) (SW620 cells, control siRNA versus CLDN1 siRNA, 3 replicate slides) was 0.80 fold-change. For the same substance, in the data set with claudin-1 (CLDN1) (confocal microscopy), the “binding to the surface of SW620 cells” value is reported as “minimal binding”.
Regarding SPTPSSR [SPT*], in the data set with T84 monolayers (5 μM peptide, up to 24 hours), the “trans-epithelial electrical resistance (TEER)” value is listed as “high”. Moreover, the “effect on tight junction function and ZO-1 distribution” value in the data set with T84 monolayers (24 hours after peptide incubation) is listed as “neither peptide alters tight junction function or ZO-1 distribution”. In the data set on colonic dysplasia, the “fluorescence signal from dysplasia on endoscopy” value is given as “minimal signal”. In the data set with colonic dysplasia (n=10 dysplasias, topical 100 μM, 5 minutes), the “T/B ratio (mean±SD)” value is on record as 1.19±0.23.
In the case of “pep*-Cy5: RTSPSSR labeled at the C-terminus with Cy5 via a GGGSK linker”, the “mean (±std) fluorescence intensity” value with SW620 cells turned out to be 58.4±3.7 A.U. Also, the “increase in signal using Cy5 label versus FITC” value in the data set with SW620 cells (SW620 cells) is recorded as approximately 20 fold. In addition, the “improvement in photostability compared to FITC-labeled peptide” value in the data set on SW620 cells (setting [2]) is approximately 4 fold. In addition, the “reduction in fluorescence intensity” value in the data set on SW620 cells (setting [2]) is listed as 8.5%. Besides, the “binding to cell surface” value in data set [1] (10 μM, 4° C., 1 hour, control tested on SW620 cells) is “specific binding”. Further, in data set [1] (SW620 cells), the “Pearson's correlation ρ, co-localization with anti-claudin-1 antibody” value was found to be 0.56. The “mean fluorescence intensity (±SEM)” value in the data set with human colonic tissues (adenocarcinoma, n=5) was found to be 31±4 AU; in the data set on human colonic tissues (adenoma, n=6) it was 26±4 AU; in the data set on human colonic tissues (normal colonic mucosa, n=4), 7±2 AU. Also, the sections stained with human colonic tissues (adenocarcinomas, 10/10 sections) was determined as 100%; in the data set on human colonic tissues (colonic adenomas, 11/12 sections) it was 92%.
In the case of “pep*-FITC: RTSPSSR labeled at the C-terminus with FITC via a GGGSK linker”, the “mean (±std) fluorescence intensity” value in the data set with SW620 cells worked out at 3.1±0.6 A.U. For the same substance, the “reduction in fluorescence intensity” value in the data set with SW620 cells (setting [2]) is recorded as 32%.
